# Measurements reported in patent publication US20150057316A1, “NOVEL SULFONATE-BASED TRIMEBUTINE SALTS” (GICARE PHARMA INC., priority 2012, published 2015).
# Tests used:
# male Balb/C mice = assay: preliminary toxicological evaluation following i.p. administration in mice; assay type: in vivo; details: 50 mg/kg i.p.
# Description: A preliminary toxicological evaluation of the compound was done in 6-8 week old male Balb/C mice. […] Following administration of the test article, animals were observed hr for the first 8 hr post-dosing for clinical signs and twice daily thereafter until termination on Day 7. Body weights were determined on Days 1, 2, 3 and 7. Three mice were sacrificed by exsanguination at 24 hr post dosing or on Day 7, and a gross necropsy was performed in all animals. Particular attention was paid to the abdominal, thoracic and cranial cavities for reporting of any unusual observations.
# male Sprague-Dawley rats = assay: preliminary toxicological evaluation following p.o. administration in rats; assay type: in vivo
# Description: A preliminary toxicological evaluation of the compound was done in 250-300 g male Sprague-Dawley rats. Animals were randomized into one of three dosing group, i.e. 250, 500 or 1,000 mg/kg administered by oral gavage. Following administration of the test article, animals were observed hourly for the first 8 hr post-dosing for clinical signs and twice daily thereafter until termination on Day 7. Three animals per group were sacrificed by exsanguination under general anesthesia at 24-hr post dosing or on Day 7 and a gross necropsy was performed in all animals. Additionally, all three rats having received the 500 mg/kg dose and scheduled for sacrifice on Day 7 were placed in individual metabolic cages immediately following test article administration, in order to collect feces and urine during 48 hr. Blood samples were collected terminally from each rat for hematology and serum chemistry evaluation.
# Sprague-Dawley rats = assay: single dose acute and 7-day range-finding oral toxicity study in rats; assay type: in vivo
# Description: Consequently, a single dose acute and 7-day range-finding oral toxicity study in Sprague-Dawley rats was conducted. During the single dose acute phase of the study, the test article was administered as a single dose by oral gavage to groups of 3 male and 3 female Sprague-Dawley rats, each group receiving a higher or lower dose level, based on the reaction of the previous group during the first day of the observation period.
# Upon completion of the 7-day treatment period, all animals were euthanized and subjected to a gross necropsy examination (Day 8 study). Clinical signs (ill health, behavioral changes, etc.) were recorded on all surviving animals. Clinical pathology evaluations (hematology, clinical chemistry and coagulation parameters) were performed on all surviving animals (single dose acute & range-finding phases) prior to their scheduled necropsy. Blood samples were collected terminally from the abdominal aorta (while anesthetized with isoflurane).
# Beagle dogs [1] = assay: i.v./p.o. cross over study in dogs, toxicological assessment; assay type: in vivo; details: 2 mg/kg i.v. or 10 mg/kg p.o.
# Description: (§1) Trimebutine 3-thiocarbamoyl-benzenesulfonate was administered as a cross over design once, each dosing separated by at least a 7-day washout period. During this study, assessments included mortality checks, clinical observations, and body weights. Feces and urine samples were collected up to 48 hr post-administration. Blood samples were also collected for pharmacokinetic evaluations on Days 1 and 8 at 10 time points. Pharmacokinetic data are presented in the two following Figures.
# [2] = recovery of counter-ion and metabolites in urine and feces of dogs; assay type: in vivo; details: for mean total recovery of the unchanged counter-ion: urine and feces up to 48 hr
# Description: as §1
# After proper preparation of the urine and feces samples, 3-thiocarbamoyl-benzenesulfonate counter-ion and its two potential metabolites (3-cyanobenzenesulfonate and 3-sulfobenzoate) were assessed using a LC/MS/MS method, with analysis by MRM, ESI-. Calibration curves were prepared for each analyte in blank feces homogenate, following the same procedure.
# Beagle dogs [3] = assay: MTD determination following p.o. administration in dogs; assay type: in vivo
# Description: For MTD determination, the compound was administered once on each occasion by oral gavage, in an incremental fashion to animals, until the maximum tolerated dose is considered to have been reached. This dose was established at 2,000 mg/kg, i.e., the highest dose administered in animals. […] The animal was back to normal activity levels approximately 1 hr post dosing.
# [4] = accelerated stability protocol; assay type: physicochemical; details: Polymorph B, 40±2° C., 75±5% RH, six months
# Description: The long-term stability of Example 20 was assessed using an accelerated stability protocol. For this purpose, samples of Example 20—Polymorph B was placed in borosilicate vials polyethylene plastic bags, sealed in an aluminum bag, and placed in a fiber drum with desiccant. The samples where then subjected to 40±2° C. with 75±5% relative humidity (RH), and stability was monitored at time 0, 1, 2, 3 and 6 months using a standardized HPLC method.
# [5] = male rats, single oral dose 250, 500 or 1000 mg/kg
smiles,measurement,setting,value
CCC(COC(=O)c1cc(OC)c(OC)c(OC)c1)(c1ccccc1)N(C)C.NC(=S)c1cccc(S(=O)(=O)O)c1 (stereo not drawn) [Example 20],tolerability,male Balb/C mice,well-tolerated
same,macroscopic finding at gross necropsy,male Balb/C mice; 24 hr or Day 7,no significant macroscopic finding
same,clinical signs,male Balb/C mice; 7 days,no clinical signs were noted
same,mortality,male Balb/C mice; 7 days,no mortality
same,body weights,"male Balb/C mice; Days 1, 2, 3 and 7",remained stable
same,hematology parameters,"male Sprague-Dawley rats; male rats, single oral dose",No significant changes
same,"serum biochemistry variations compared to control (e.g., amylase, creatinine)","male Sprague-Dawley rats; male rats, single oral dose","minor, transient and remained within the normal range for the species"
same,mortality or clinical signs,male Sprague-Dawley rats; [5],No mortality or clinical signs were observed
same,tolerability,male Sprague-Dawley rats; [5],well tolerated
same,necropsy findings,"male Sprague-Dawley rats; rats sacrificed on Day 7, 500 or 1000 mg/kg p.o.",pale and/or enlarged lungs in a few animals
same,dose well tolerated over 7 days without significant clinical signs of toxicity,"Sprague-Dawley rats; male and female rats, once daily oral gavage, 7 days","1,000 mg/kg"
same,death and clinical signs of toxicity,"Sprague-Dawley rats; male and female rats, single oral dose up to 2,000 mg/kg",no death and no significant clinical signs of toxicity
same,single dose well-tolerated,"Sprague-Dawley rats; male and female rats, single oral gavage","up to 2,000 mg/kg"
same,deaths during 7-day repeat dose regimen,"Sprague-Dawley rats; rats, 2,000 mg/kg once daily p.o., deaths after 3 and 5 days","two animals from the 2,000 mg/kg dose group died"
same,bodyweight,Beagle dogs [1],no change in bodyweight
same,death,Beagle dogs [1],no death reported
same,toxicity,Beagle dogs [1],no indication of any toxicity
same,additional recovery as metabolite 3-cyanobenzenesulfonate,[2]; 2 mg/kg i.v.,4.7%
same,recovery associated to 3-sulfobenzoate,[2]; 2 mg/kg i.v.,0.6%
same,mean total recovery of the unchanged counter-ion,[2]; 2 mg/kg i.v.,about 72%
same,3-sulfobenzoate in urine,[2]; 10 mg/kg p.o.,not detected
same,additional recovery as metabolite 3-cyanobenzenesulfonate,[2]; 10 mg/kg p.o.,14.5%
same,recovery associated to 3-sulfobenzoate,[2]; 10 mg/kg p.o.,1.7%
same,mean total recovery of the unchanged counter-ion,[2]; 10 mg/kg p.o.,about 61%
same,"clinical observations, male dog","Beagle dogs [3]; 2,000 mg/kg p.o.",limited to vomiting a few min following dosing administration
same,"clinical signs, female dog","Beagle dogs [3]; 2,000 mg/kg p.o.","Decreased activity level, vomiting, bowel movement, yellowish fluid fecal consistency, vocalization about 15-20 min post-dose, decreased respiration, weak behavior, eyes partially closed, and mild transient tremors"
same,"blood pressure, male dog","Beagle dogs [3]; 2,000 mg/kg p.o., 30 min post dose compared to pre-dose",dropped slightly
same,"blood pressure, female dog","Beagle dogs [3]; 2,000 mg/kg p.o., approximately 30 min post dose",almost no change in blood pressure
same,"time back to normal activity levels, female dog","Beagle dogs [3]; 2,000 mg/kg p.o., post dosing",approximately 1 hr
same,doses orally administered well tolerated,"Beagle dogs [3]; Beagle dogs, oral gavage","up to 2,000 mg/kg"
same,maximum tolerated dose (MTD),"Beagle dogs [3]; Beagle dogs, oral gavage, highest dose administered","2,000 mg/kg"
same,HPLC purity after storage,[4],> 99.7%
same,degradation,[4],no degradation had been observed
